In brackets after ≈: the same amount, converted by molar mass.
Key:
[1] = Therapeutic index(TI) was evaluated (IC50/EC50); conditions: read-out: TI
[2] = test system: H9; assay: Inhibitory concentration required to inhibit uninfected H9 lymphocytic cell growth by 50%; assay type: functional, cell-based; conditions: Homo sapiens
[3] = test system: H9; assay: Inhibitory concentration required to inhibit HIV replication in H9 lymphocytes growth by 50%; assay type: functional, cell-based; conditions: Homo sapiens

SMILES	selectivity ratio [1]	IC50 [2] [µg/mL]	EC50 [3] [µg/mL]
COc1cc2c(c3ccccc3n2C)c2c(NCCN(C)C)nccc12	8.9	0.23 (≈ 0.66 µM)	0.026 (≈ 0.0746 µM)
COc1cc2c(c3ccccc3n2C)c2c(NCCCO)nccc12	153	0.15 (≈ 0.447 µM)	0.001 (≈ 0.00298 µM)
COc1cc2c(c3ccccc3n2C)c2c(NCCN)nccc12	10.6	0.23 (≈ 0.718 µM)	0.022 (≈ 0.0687 µM)
COc1cc2c(c3ccccc3n2C)c2c(Cl)nccc12	136	26 (≈ 87.6 µM)	0.19 (≈ 0.64 µM)
COc1cc2c(c3cnccc13)c1ccccc1n2C	503	2.7 (≈ 10.3 µM)	0.0054 (≈ 0.0206 µM)
COc1cc2c(c3ccccc3n2C)c2c(NCCN3CCCCC3)nccc12	47.9	0.24 (≈ 0.618 µM)	0.005 (≈ 0.0129 µM)
COc1cc2c(c3cc(O)ccc3n2C)c2c(Cl)nccc12	3.6	5 (≈ 16 µM)	1.4 (≈ 4.48 µM)

From ChEMBL document CHEMBL1132672, “Substituted 7H-pyrido[4,3-c]carbazoles with potent anti-HIV activity” (Bioorg Med Chem Lett, 1999)
